Laboratory results as given in patent US11383003B2, “Water soluble farnesol analogs and their use” (Kimberly-Clark Worldwide, Inc., priority 2012, dated 2022).

Tests used:
C. elegans glp4; sek1 = test: Toxicity: death rate of C. elegans glp4; sek1 fed on E. coli OP50; conditions: for Death rate (%): 2 mM, worms fed on E. coli OP50, 25° C.
Method: The toxicity of the selected compounds/products were tested using the C. elegans glp4; sek1 fed on E. coli OP50 (Table 5).
Stock cultures of C. albicans SC 5314 was subcultured into 3 ml of YPD broth and incubated at 30° C. Then the overnight culture in broth was spread onto YPD agar, and incubated at 30° C. The 24 h old lawn of SC5314 was used to feed worms for 2 h at 25° C. The control were worms fed on OP50.
The worms were washed off the YPD plates and washed twice with M9 buffer. The worms were resuspended in screening media, M9 buffer with 0.3% Tween 80. The worm suspension (50 μl) was dispensed into the wells of 96-well plates, 20-30 worms/well. Aliquots (50 μl) of compounds in screening media were added to wells, 5 wells each compound. The 96 well plates were incubated at 25° C. for up to 5 days. Live and dead worms were counted during incubation, and the death rates of worms were calculated.

C. albicans SC5314 [1] = test: Germ tube formation (GTF %) in vitro screening, GlcNAc-triggered differentiation assay; format: cell-based, Candida albicans
Method: Based on the results in FIG. 3, single cell suspensions of SC5314 was prepared as follows. Stock culture of C. albicans SC5314 was streaked onto YPD agar (YPDA) and incubated at 30° C. overnight. Single colonies were subcultured in YPD broth (YPDB) and incubated 30° C., 200 rpm overnight. Overnight culture in YPDB was subcultured in YPD broth again and incubated 30° C., 200 rpm 48 h. Cells were collected by centrifugation (4000 g 10 min) at 4° C., washed three times with sterile water, and then resuspended in sterile water a final concentration of 10^9 colony-forming unit/ml (cfu/ml). The suspension were stored at 4° C. at least 1 d, then subcultured into YPDB to a final concentration of 10^6 cfu/ml. After 48 h incubation, cell suspension was examined under the microscope for single cell percentage. When the single cell percentage exceeded 80%, cells were collected and washed three times with water, then resuspended in water to a final concentration of 10^9 cfu/ml, and stored at 4° C. for no more than a month.
Two approaches were taken to determine the percentage of cells with germ tubes formed (GTF %). One way was to count the total cells at the start of incubation, and count the ungerminated cells after incubation, then calculate the GTF % as (1—ungerminated cells/total cells at 0 h)*100. Another way was to store the samples at 15° C. for 20 h after incubation, then count the germinated cells and total cells after disaggregation, then calculated the GTF % as (germinated cells/total cells after storage)*100. […] Therefore, for practical purposes, the GTF % was determined by the first method, that is, GTF %=(1—ungerminated cells/total cells at 0 h)*100, for the in vitro screening discussed herein.
A screening medium, containing 11 mM imidazole buffer, 3 mM MgSO4, and 2.6 mM N-acetyl-D-glucosamine (GlcNAc) has been used to study the effect of farnesol analogs on the germ tube formation of C. albicans. Here, the germ tube formation of C. albicans in modified screening media was assessed with various concentrations of imidazole buffer (10 mM, 30 mM and 50 mM) and MgSO4 (0.5 mM, 1.5 mM and 3 mM). […] It took 2 h to 3 h for the GTF % to reach above 80%. For practical purposes, the screening medium, containing 11 mM imidazole buffer, 0.5 mM MgSO4, and 2.6 mM N-acetyl-D-glucosamine (GlcNAc) was adopted for in vitro screening the quorum sensing inhibitory effect of farnesol compounds.
The in vitro screening assay was based on the N-acetylglucosamine (GlcNAc)-triggered differentiation assay (Hornby et al., “Quorum sensing in the dimorphic fungus Candida albicans is mediated by farnesol;” Applied and Environmental Microbiology 67:2982-2992; 2001), which included 0.56 ml of 0.1 M imidazole buffer (pH 6.5), 0.15 ml of 0.1 M MgSO4, 0.13 ml of 0.1 M GlcNAc, and 4.16 ml of sterilized water. Bioassays of quorum sensing candidates were conducted by the addition of the chemical, as a solution in 100% methanol, to the bioassay media; the final concentration of methanol was no greater than 1%.

[2] = tested on: C. elegans glp4; sek1 infected with C. albicans SC5314; test: Death rate of C. elegans glp4; sek1 infected with C. albicans SC5314, 96 well plates; format: in vivo, Caenorhabditis elegans
Method: Caenorhabditis elegans glp4; sek1 was used as the model for […]. Breger et al. (Breger, J.; Fuchs, B. B.; Aperis, G.; Moy, T. I., Ausubel, F. M., Mylonakis, E.; “Antifungal chemical compounds identified using a C. elegans pathogenicity assay.” PLoS Pathogens 3: 168-178; 2007) reported that the glp-4 mutation rendered the strain incapable of producing progeny at 25° C., and the sek-1 mutation enhanced the sensitivity of the strain to various pathogens, thereby decreasing the time for screening assays. It was observed that no progenies was produced by the Caenorhabditis elegans glp4; sek1 strain after 3 d incubation at 25° C.
The synchronization of C. elegans was achieved by collecting the eggs and arresting the larvae at L1 stage. The commonly used bleach treatment was able to release the eggs from the adult worms. However, it was observed that the released eggs were not always able to hatch after treated with sodium hypochlorite (0.2, 0.3, 0.4, 0.5, 0.7 or 1%) for 3-5 min. A modified egg laying method was developed to synchronize worms to L1 stage. In brief, stock cultures of C. elegans glp4; sek1, maintained on Nematode Growth Media plates (NGM plates), were subcultured onto NGM plates with OP 50 and incubated at 15° C. for 6-9 days. Then a chunk (1 cm^2) of agar with gravid adults was subcultured again onto NGM plates with OP50 and incubated at 15° C. After incubation of 3-7 days, the worms were gently washed off with 3 ml of M 9 buffer on the rotating platform (100 rpm). The plate was tilted on its lid to allow the liquid and worms drain to one side of the plate. The liquid and worms were aspirated off. The plate was washed again with M9 buffer three more times to remove OP50 as much as possible. After washing, the plate was incubated at 25° C. overnight to let the eggs hatch overnight. Since there was no OP50, the larvae were arrested at the L1 stage. The live C. elegans glp4; sek1 was quite curvy; whereas the dead C. elegans glp4; sek1 tended to be straight, and in most cases the dead worms with the hyphae of C. albicans pieced through the body. The curvy shape and movement after shaking were used as the criteria for live.
The In vitro screening assay, based on the method of Tampakakis et al (Tampakakis, E.; Okoli, I.; Mylonakis, E.; “A C. elegans-based, whole animal, in vivo screen for the identification of antifungal compounds.” Nature Protocols 3:1925-1931; 2008), is described as follows:
L1 worms, which were prepared by the modified egg-laying method, were collected by centrifugation at 675 g for 30 s at room temperature, and the supernatant was removed. Worms were resuspended in M 9 buffer and inoculated on NGM agar plates with OP50, ˜1000 worms per plate. After 2-3 days incubation at 25° C., the worms were washed off with M 9 buffer for the […] assay.
The control were worms fed on OP50.

[3] = cited from earlier work
C. albicans SC5314 [4] = test: Effect of quorum sensing molecules on lag phase/growth of C. albicans in YPD broth; format: cell-based, Candida albicans; conditions: 100 μM, 37° C., 6 h
[5] = 0.4 mM, 4 days, 25° C., two replicates
[6] = 0.4 mM, 5 days, 25° C., two replicates
[7] = 1.0 mM, 4 days, 25° C., two replicates
[8] = 1.0 mM, 5 days, 25° C., two replicates
[9] = 2.0 mM, 4 days, 25° C., two replicates (* three)
[10] = 2.0 mM, 5 days, 25° C., two replicates (* three)
[11] = 3.0 mM, 4 days, 25° C., two replicates
[12] = 3.0 mM, 5 days, 25° C., two replicates
[13] = 0.4 mM to 3 mM (the tested four concentrations)

CC(C)=CCC/C(C)=C/CC/C(C)=C/CO [E,E-farnesol, reference compound]
Death rate (%) (C. elegans glp4; sek1): 7%
toxicity to C. elegans fed on E. coli OP50 (in words) (C. elegans glp4; sek1; in vivo): slightly higher than the control
GTF % (mean ± SEM, n = 2) (C. albicans SC5314 [1]; 100 μM, * one replicate): 44.0 ± 3.1%
GTF % (mean ± SEM, n = 2) (C. albicans SC5314 [1]; 200 μM): 18.4 ± 2.9%
% change in the death rate compared to the control ([2]; 0.4 mM, day 1, initial screening): −4%
% change in the death rate compared to the control ([2]; 0.4 mM, day 4, initial screening): −16%
% change in the death rate compared to the control ([2]; 0.4 mM, day 5, initial screening): −19%
effect on death rate of infected C. elegans (in words) ([2]; 0.4 mM, initial screening): reduced the death rate slightly
% change in the death rate compared to the control ([2]; 1 mM, day 1, initial screening): −12%
% change in the death rate compared to the control ([2]; 1 mM, day 4, initial screening): 14%
% change in the death rate compared to the control ([2]; 1 mM, day 5, initial screening): 10%
% change in the death rate compared to the control ([2]; 2 mM, day 1, initial screening): −8%
% change in the death rate compared to the control ([2]; 2 mM, day 4, initial screening): 19%
% change in the death rate compared to the control ([2]; 2 mM, day 5, initial screening): 8%
% change in the death rate compared to the control ([2]; 3 mM, day 1, initial screening): −21%
% change in the death rate compared to the control ([2]; 3 mM, day 4, initial screening): 23%
% change in the death rate compared to the control ([2]; 3 mM, day 5, initial screening): 12%
effect on death rate of infected C. elegans (in words) ([2]; higher concentration (above 0.4 mM), initial screening): resulted in higher death rate of the worm
solubility in water (in words) [3]: insoluble in water
effect on the growth of C. albicans SC5314 (in words) (C. albicans SC5314 [4]): little effect on the growth

OCCc1ccc(O)cc1 [tyrosol]
effect on the growth of C. albicans SC5314 (in words) (C. albicans SC5314 [4]): little effect on the growth

CC(C)=CCC/C(C)=C/CC/C(C)=C/COC(=O)CCC(=O)O [#1 synthesized analog]
Death rate (%) (C. elegans glp4; sek1): 3.3 ± 1.2%
GTF % (mean ± SEM, n = 2) (C. albicans SC5314 [1]; 100 μM, * one replicate): 55.9 ± 8.2%
GTF % (mean ± SEM, n = 2) (C. albicans SC5314 [1]; 200 μM): 31.2 ± 5.0%
effect on death rate of infected C. elegans (in words) ([2]; 0.4 mM to 2 mM): significantly reduced the death rate
% change in the death rate compared to the control [2, 5]: −43 ± 8%
% change in the death rate compared to the control [2, 6]: −30 ± 2%
% change in the death rate compared to the control [2, 7]: −33 ± 5%
% change in the death rate compared to the control [2, 8]: −29 ± 11%
% change in the death rate compared to the control [2, 9]: −23 ± 4%
% change in the death rate compared to the control [2, 10]: −34 ± 11%
effect on death rate of infected C. elegans (in words) ([2]; 3 mM): increased the death rate
% change in the death rate compared to the control [2, 11]: 20 ± 3%
% change in the death rate compared to the control [2, 12]: 10 ± 9%
effect on death rate of infected C. elegans (in words) ([2]; key finding, no concentration stated): significantly reduced the death rate

CC(C)=CCC/C(C)=C/CC/C(C)=C/COCCCCO [#5 synthesized analog]
Death rate (%) (C. elegans glp4; sek1): 4%
GTF % (mean ± SEM, n = 2) (C. albicans SC5314 [1]; 100 μM, * one replicate): 73.8 ± 4.8%
GTF % (mean ± SEM, n = 2) (C. albicans SC5314 [1]; 200 μM): 53.6 ± 3.0%
effect on death rate of infected C. elegans (in words) [2, 13]: did not have significant effect on the death of the worms
% change in the death rate compared to the control [2, 5]: −3 ± 6%
% change in the death rate compared to the control [2, 6]: −6 ± 3%
% change in the death rate compared to the control [2, 7]: 2 ± 3%
% change in the death rate compared to the control [2, 8]: 9 ± 1%
% change in the death rate compared to the control [2, 9]: −8 ± 1%
% change in the death rate compared to the control [2, 10]: 2 ± 2%
% change in the death rate compared to the control [2, 11]: −4 ± 4%
% change in the death rate compared to the control [2, 12]: 4 ± 1%

CC(C)=CCC/C(C)=C/CC/C(C)=C/COC(=O)CCC(=O)OCCO [#4 synthesized analog]
Death rate (%) (C. elegans glp4; sek1): 2%
GTF % (mean ± SEM, n = 2) (C. albicans SC5314 [1]; 100 μM, * one replicate): 59.2 ± 4.8%
GTF % (mean ± SEM, n = 2) (C. albicans SC5314 [1]; 200 μM): 31.1 ± 8.2%
effect on death rate of infected C. elegans (in words) [2, 13]: did not have significant effect on the death of the worms
% change in the death rate compared to the control [2, 5]: 8 ± 8%
% change in the death rate compared to the control [2, 6]: 7 ± 1%
% change in the death rate compared to the control [2, 7]: −3 ± 3%
% change in the death rate compared to the control [2, 8]: −1 ± 4%
% change in the death rate compared to the control [2, 9]: 4 ± 8%
% change in the death rate compared to the control [2, 10]: 8 ± 11%
% change in the death rate compared to the control [2, 11]: 7 ± 4%
% change in the death rate compared to the control [2, 12]: 10 ± 5%
